# Measured values as given in patent publication US11747325B2, “Bleomycin for mimicking the effect of ionizing radiations on T cells” (Novagray, priority 2018, dated 2023).
# Assays:
# [1] = system: T lymphocytes; assay: Bleomycin-induced CD8 T-lymphocyte apoptosis, treatment from the start of blood cell culture (at least 50 hours contact), flow cytometry; format: cell-based, human; details: for T lymphocytes apoptosis rate, from the start of cell culture: same blood sample, 8 Gy irradiation control 28.2%
# Method: (§1) Blood samples were purchased from Etablissement Français du Sang (EFS) with the convention number 21PLER2016-0100 AV01. Blood samples were collected from healthy donors in 5 mL heparinized tubes without separation gel.
# (§2) Blood cells were grown in RPMI-1640 with glutamax (Fisher scientific, France) supplemented with 20% fetal calf serum (FCS) (EuroBio, France). Cells were maintained at 37° C. with 5% CO2 during the experiments.
# (§3) Bleomycin (EuroMedex) was solubilized in sterile MilliQ water at 50 mg/mL according to manufacturer instructions and stored at −80° C.
# (§4) Samples were then centrifuged for 5 min at 300 g. The pellets were resuspended in phosphate-buffered saline (PBS) containing 10 μl of anti-human CD8-FITC antibody (Becton Dickinson, USA) and incubated for 20 minutes at room temperature. Then, red blood cells were lysed by addition of 4 ml of lysis buffer diluted 1:10 in water (Becton Dickinson, USA). After another 20 minutes incubation time at room temperature, samples were centrifuged for 5 min at 300 g and the pellets were washed with 3 ml of PBS. Pellets were suspended in 200 μl of PBS containing 25 μg/ml of propidium iodide (Sigma, France) and 5 μl of RNAse A at 10 mg/ml (Qiagen, France). The samples were analyzed by flow cytometry within the next hours, using the CytoFlex (Beckman Coulter, USA). […]
# Two hundred microliters of blood were aliquoted into a 6-well plate containing 2 mL of RPMI-20% FCS-bleomycin, about 24 hours after blood collection. The cell culture media containing the different concentrations of bleomycin were made fresh just before starting the cell culture. After bleomycin incubation with blood cells for at least 50 hours (generally more than about 60 hours, in particular between 65 and 75 hours), samples were stained for flow cytometry analysis as described above.
# (§5) Two treatment conditions were tested on the same blood sample: blood cells were treated by several bleomycin concentrations 24 hours after cell culture or from the start of cell culture. A control experiment was performed by irradiating blood samples at 8 Gy.
# [2] = system: T lymphocytes; assay: Bleomycin-induced CD8 T-lymphocyte apoptosis, treatment 24 hours after blood cell culture (less than 50 hours contact), flow cytometry; format: cell-based, human; details: for T lymphocytes apoptosis rate, 24 hours after cell culture: staining 48 hours after treatment, same blood sample, 8 Gy control 28.2%
# Method: as §1, §2, §3, §4
# Two hundred microliters of blood were aliquoted into a 6-well plate containing 2 mL of RPMI-20% FCS, about 24 hours after blood collection. Bleomycin treatment, at the different concentrations, was performed 24 hours after blood cell culture by adding the Bleomycin directly into the wells. The staining for detecting apoptosis was performed as described above and 48 hours after the bleomycin treatment (thus, after less than 50 hours of contact of bleomycin with the cells). • Treatment during blood cell culture:
# as §5
substance,measurement,setting,value
Bleomycin,"T lymphocytes apoptosis rate, from the start of cell culture",[1]; bleomycin 50 μg/mL,12.47%
same,"T lymphocytes apoptosis rate, from the start of cell culture",[1]; bleomycin 100 μg/ml,19.14%
same,"T lymphocytes apoptosis rate, from the start of cell culture",[1]; bleomycin 200 μg/ml,23.44%
same,"T lymphocytes apoptosis rate, from the start of cell culture",[1]; bleomycin 300 μg/ml,26.32%
same,"T lymphocytes apoptosis rate, from the start of cell culture",[1]; bleomycin 400 μg/ml,30.68%
same,Bleomycin concentration achieving the apoptosis rate obtained after 8 Gy irradiation,[1]; treatment applied at the start of blood cell culture,lower than 300 μg/ml
same,"T lymphocytes apoptosis rate, 24 hours after cell culture",[2]; bleomycin 50 μg/mL,3.98%
same,"T lymphocytes apoptosis rate, 24 hours after cell culture",[2]; bleomycin 100 μg/ml,2.72%
same,"T lymphocytes apoptosis rate, 24 hours after cell culture",[2]; bleomycin 200 μg/ml,10.13%
same,"T lymphocytes apoptosis rate, 24 hours after cell culture",[2]; bleomycin 300 μg/ml,11.9%
same,"T lymphocytes apoptosis rate, 24 hours after cell culture",[2]; bleomycin 400 μg/ml,16.78%
same,Whether the apoptosis rate observed after 8 Gy irradiation is induced,"[2]; treatment 24 hours after blood cell culture, applied for less than 50 hours, 50 to 500 μg/mL","no bleomycin concentration, applied for less than 50 hours, induces the apoptosis rate observed after 8 Gy irradiation"
